The values that follow come from ChEMBL document CHEMBL1130881, “Novel imidazole derivatives with subtype-selective antimuscarinic activity (1)” (Bioorg Med Chem Lett, 1998).

The structures appear in SMILES notation.

The assay deals with Muscarinic acetylcholine receptor M3 (Cavia porcellus) (UniProt Q8VH26). Briefly: Antimuscarinic activity was evaluated against muscarinic M3 receptor in Guinea-Pig ileum. The assay is classed as tissue-based.
Sequence of Muscarinic acetylcholine receptor M3 (Cavia porcellus) (Q8VH26 1-587): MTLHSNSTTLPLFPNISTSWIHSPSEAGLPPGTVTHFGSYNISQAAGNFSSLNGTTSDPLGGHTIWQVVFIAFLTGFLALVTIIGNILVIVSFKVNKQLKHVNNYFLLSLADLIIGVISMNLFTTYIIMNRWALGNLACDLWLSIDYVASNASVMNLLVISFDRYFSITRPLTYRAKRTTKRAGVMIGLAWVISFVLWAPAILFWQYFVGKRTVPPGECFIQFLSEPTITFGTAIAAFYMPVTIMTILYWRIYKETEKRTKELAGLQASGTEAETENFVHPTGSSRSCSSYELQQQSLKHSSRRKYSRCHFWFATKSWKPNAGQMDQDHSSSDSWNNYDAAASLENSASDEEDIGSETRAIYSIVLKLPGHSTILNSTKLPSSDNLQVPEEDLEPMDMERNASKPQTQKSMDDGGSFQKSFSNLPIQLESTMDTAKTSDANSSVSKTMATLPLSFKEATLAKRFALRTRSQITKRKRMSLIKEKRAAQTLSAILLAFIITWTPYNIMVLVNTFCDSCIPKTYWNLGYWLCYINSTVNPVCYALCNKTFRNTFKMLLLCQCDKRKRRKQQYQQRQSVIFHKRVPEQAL
Consider `N#CC(CCN1CCCC1)(c1ccccc1)c1ccccc1`, for which the Kb came out at 65.7 nM. `CCc1ncn(CCC(C(N)=O)(c2ccccc2)c2ccccc2)c1CC` came in with a Kb of 3.98 nM. Under `Cc1cncn1CCC(C(N)=O)(c1ccccc1)c1ccccc1` stands 0.86 nM. Under `CCCc1nccn1CCC(C(N)=O)(c1ccccc1)c1ccccc1` stands 177 nM; under `CCCc1ncn(CCC(C(N)=O)(c2ccccc2)c2ccccc2)c1CCC`, 100 nM; under `Cc1ncn(CCC(C(N)=O)(c2ccccc2)c2ccccc2)c1C`, 2.7 nM. Turning to `NC(=O)C(CCN1CCCC1)(c1ccccc1)c1ccccc1`, the Kb was found to be 5.59 nM. Under `Cc1cn(CCC(C(N)=O)(c2ccccc2)c2ccccc2)cn1` stands 10.1 nM; under `CC(C)(C)c1nccn1CCC(C(N)=O)(c1ccccc1)c1ccccc1`, 30.2 nM; under `CCc1nccn1CCC(C(N)=O)(c1ccccc1)c1ccccc1`, 78.1 nM. For `CC(CC(c1ccccc1)c1ccccc1)NC(C)(C)C` (centres undefined) the value was 67.7 nM; for `c1ccc(C(CCn2ccnc2)c2ccccc2)cc1`, 89.1 nM; for `CCN(CC)CCC(c1ccccc1)c1ccccc1`, 197 nM.

On to `NC(=O)C(CCn1ccnc1)(c1ccccc1)c1ccccc1`, for which the Kb turned out to be 5.07 nM. For `c1ccc(C(CCN2CCCCC2)c2ccccc2)cc1` the value was 69.6 nM. For `CC(C)c1nccn1CCC(C(N)=O)(c1ccccc1)c1ccccc1`, the Kb came to 1.8 nM. The compound `NC(=O)C(CCn1cnc2ccccc21)(c1ccccc1)c1ccccc1` gave a Kb of 2130 nM. For `CC(C)(C)NCCC(c1ccccc1)c1ccccc1` the value was 792 nM; for `Cc1nccn1CCC(C(N)=O)(c1ccccc1)c1ccccc1`, 0.32 nM.
